Assay results taken from patent US20160103138A1, “METHODS FOR ANALYZING ELASTIC FIBER INJURY MARKERS AND DIAGNOSIS OF DISEASES ASSOCIATED WITH ELASTIC FIBER INJURY” (priority 2013, published 2016).

How the values were obtained:
[1] = 6N HCl (Ma, S. et al., 2011); cited from earlier work
[2] = Stability of DES-d4 (IS) in 6N HCl at 110° C., recovery by LC-MS/MS; type: physicochemical; details: heated at 110° C. for 24, 48, and 72 hours
Protocol: Step 1: Acid hydrolysis: DES-d4 IS (5 ng) was added to the analytical samples (0.5 ml) in a glass vial with equal volumes of concentrated HCl (37%). Air in the vial was displaced with nitrogen, and was heated at 110° C. for 24 hours. The hydrolyzed sample was filtered and evaporated to dryness.
Step 3: LC-MS/MS analysis: A TSQ Discovery electrospray tandem mass spectrometer (Thermo Fisher Scientific) was used for LC-MS/MS analysis. HPLC conditions used were a 2 mm×150 mm dC18 (3 μm) column (Waters, Mass.) and the mobile phase A (7 mM HFBA/5 mM NH4Ac in water) and B (7 mM HFBA/5 mM NH4Ac in 80% acetonitrile) were programmed linearly from 100% A to 82% A in 12 m. Quantitation was performed by selected reaction monitoring (SRM) of the transitions of both DES and IDS (m/z 526 to m/z 481+m/z 397) and the IS (m/z 530 to m/z 485), with collision energy set at 33 V for both transitions, collision gas pressure was 1.5 mTorr, tube lens at 132 V, with sheath gas pressure set at 45 and auxiliary gas pressure at 6 units and ion spray voltage at 3.8 kV. The scan time was set at 1.00 ms and both quadrupoles (Q1 and Q3) were at 0.7 Da FWHM.
The stability of DES-d4 and reliability during use as the IS for the isotope dilution LC-MS/MS analysis of DES and IDS were examined. […]

[3] = test system: desmosine and isodesmosine (DI) in plasma (elastin degradation); assay: Effect of alpha-1 antitrypsin augmentation therapy on DI levels in plasma of AATD patients; type: in vivo, human; details: for change in DI in plasma from baseline: 11 patients, intravenous replacement
Text: (§1) There were 4 sources of body fluid samples analyzed: 1) plasma samples from 47 patients receiving alpha-1 antitrypsin protein from human blood sources, commercially available, compared with 50 AATD patients not on AAT augmentation and 50 normal subjects; 2) 11 patients with homozygous severe AATD who provided plasma samples before the start of IV therapy and then 12 and 24 weeks later; 3) 10 patients with homozygous AATD receiving IV replacement provided BALF at 12 weeks (the dose administered was 60 mg/kg body weight each week in the above patient groups); and 4) patients received a recombinantly produced AAT which was administered as an aerosol for 8 weeks. (Spencer et al., 2005) (the administered dose was 250 mg of aerosolized transgenic AAT each day). Eight patients provided BALF, 12 patients provided plasma samples, and 5 patients provided urine samples at baseline and after 8 weeks of aerosol therapy.
(§2) The following 3 methods were used to define the alpha-1 genomes: 1) genotype by allelic discrimination using TaqMan (S&Z alleles), ABI 7500 Fast Real-time PCR System; 2) AAT Level by Immunogenic assay, Dade Behring Nephelometer BN II and 3) phenotyping by isoelectric focusing, Pharmacia Biotech Multiphore II. The method of analysis for desmosine and isodesmosine (DI) in plasma, BALF and urine is as described. (Ma et al., 2011) The content of DI in BALF was calculated as the concentration of DI per ml of BALF using urea as a marker of dilution. (Rennard et al., 1986).
(§3) High performance liquid chromatography and tandem mass spectrometry as described (Ma et al., 2011) were used.
(§4) The T-test was used to compare the effects of augmentation therapy on the large patient cohorts. The paired T-test was used to compare the changes before and after therapy in individuals. The linear regression was used to determine the relationships of age to levels of DI.

[4] = test system: desmosine and isodesmosine (DI) in epithelial lining fluid obtained by BALF (elastin degradation); assay: Effect of alpha-1 antitrypsin augmentation therapy on DI levels in BALF of AATD patients; type: in vivo, human
Text: as §1
as §2, with “The method of analysis for desmosine and isodesmosine (DI) in plasma, BALF and urine is as described.” left out, “(Rennard et al., 1986).” left out

[5] = test system: urinary desmosine; details: cited from earlier work
[6] = test system: leukotriene B-5, interleukin-8 and neutrophil elastase in sputum; details: after weeks of supplementation therapy with I.V. AAT (Stockley et al., 2002); cited from earlier work
[7] = test system: urinary desmosine and isodesmosine (DI); assay: Effect of aerosol alpha-1 antitrypsin augmentation therapy on urinary DI (free and total); type: in vivo, human; details: before vs after aerosol augmentation therapy
Text: as §1, §2, §3, §4

N[C@@H](CCCc1c(CC[C@H](N)C(=O)O)c[n+](CCCC[C@H](N)C(=O)O)cc1CC[C@H](N)C(=O)O)C(=O)[O-] [DES, Desmosine]
stability during acid hydrolysis (in words) [1]: stable

[2H]C([2H])(C[C@H](N)C(=O)O)C([2H])([2H])c1c(CC[C@H](N)C(=O)O)c[n+](CCCC[C@H](N)C(=O)O)cc1CC[C@H](N)C(=O)O [DES-d4]
stability of DES-d4 under acid hydrolysis (in words) [2]: stable with nearly complete recovery

NC(CCCC[n+]1cc(CCC(N)C(=O)O)cc(CCC(N)C(=O)O)c1CCCC(N)C(=O)O)C(=O)O (stereo not drawn) [IDS, isodesmosine]
stability during acid hydrolysis (in words) [1]: stable

AAT: alpha-1 antitrypsin protein from human blood sources, commercially available, given intravenously as augmentation therapy
change in DI in plasma from baseline ([3]; 12 weeks of therapy): −13.9%
change in DI in plasma from baseline ([3]; 24 weeks of therapy): −20.3%
mean level of DI in plasma ([3]; AATD patients receiving augmentation therapy (IV, 60 mg/kg each week), n=50, no augmentation 0.36, normal 0.22): 0.25 ng/mL
plasma levels of DI, mean±SD ([3]; FIG. 7, augmentation group, n=50, no augmentation 0.36±0.01, normal 0.22±0.04): 0.25±0.01
overall average change of DI in BALF ([4]; 10 patients, before vs 12 weeks after IV augmentation therapy, p=0.0273): −37%
drop of mean post-treatment urinary desmosine from pre-treatment levels ([5]; two AATD patients, monthly infusions of 260 mg/kg, followed 18 months (Stone et al., 1995)): exceeded 35%
levels of leukotriene B-5, interleukin-8 and neutrophil elastase in sputum [6]: reduced levels

Prolastin: AAT supplementation product (Bayer Company)
urinary desmosine excretion during supplementation vs run in ([5]; 12 AATD subjects, weekly 60 mg/kg for 4 weeks (Gottlieb et al., 2000)): unchanged

aerosolized transgenic AAT: recombinantly produced AAT which was administered as an aerosol for 8 weeks
mean decrease of DI in plasma ([3]; 12 patients, before vs after 8 weeks aerosol augmentation therapy (250 mg each day), not statistically significant (p=0.1675)): 6.5%
mean increase in DI in plasma ([3]; the 3 of 12 patients with increase, aerosol augmentation therapy, not statistically significant): 4.3%
average decrease of DI in plasma ([3]; the 9 of 12 patients with reduction, aerosol augmentation therapy, p=0.0142): 12.1%
mean reduction of DI levels in BALF ([4]; 8 patients, AAT by aerosol administration, 8 weeks, p=0.0078): −58.5%
reduction in the free component of DI excretion in urine ([7]; 4 of the 5 subjects): 0.1-13.0%
average reduction of percent of free DI over total DI excretion in urine ([7]; 5 subjects, p=0.0625): 21.6%
increase in excretion of free DI in urine ([7]; one of the 5 subjects): 75.3%
